This is an account of results in publication PMC10481538, “Bioanalytical method validation and application to a phase 1, double-blind, randomized pharmacokinetic trial of a standardized Centella asiatica (L.) Urban water extract product in healthy older adults” (Frontiers in Pharmacology, 2023).

For series [1] the following is noted: cited from earlier work; for Cmax: Songvut et al., 2021.
The nature of series [2]: clinical. The settings on record: both, human, in vivo, po. The protocol:
(§1) To each sample of participant plasma or urine, A. aerogenes sulfatase (2.5 µL; 10–20 units/mL), and E. coli glucuronidase (2.5 µL; ∼5,000–50,000 units/mL) were used to release the analytes from their sulfate and β-D-glucuronic acid esters (Phase II metabolites). For calibration and validation samples, aqueous glycerol (5 µL) was added to mimic the enzymatic hydrolysis. For all analyses, 1% ascorbic acid (10 µL) was added prior to sample work up to limit oxidation. Samples were incubated (37°C) for 20 min and placed on ice to halt enzymatic activity. […] The supernatant was filtered (0.22 µm spinfilter) at 10,000 g for 5 min at 4°C and used for analysis. To optimize peak shape during analysis, the concentration of organic solvent (sample filtrate) was adjusted to a 60:40 ratio with HPLC grade water for TT analysis and a 90:10 ratio with 1% aqueous formic acid for CQA analysis.
(§2) HPLC-MS/MS was performed at the Oregon Health & Science University’s (OHSU) Bioanalytical Shared Resource/Pharmacokinetics Core (Portland, OR, United States). […] Chromatographic separation was achieved using a Poroshell 120 EC18 column (3 mm id × 50 mm; 2.7 µ) and a Poroshell ultra high-performance liquid chromatography (UHPLC) guard column (3.0 mm i.d. Å∼ 5 mm, 2.7 μ) (Agilent, Santa Clara, CA, United States). The injection volume was 20 μL and flow rate was 0.42 mL/min. Gradient elution was performed using a mobile phase of solvent A (water containing 10 mM ammonium acetate and 0.02% ammonium hydroxide; pH 8.5) and solvent B (methanol). […] Chromatographic separation was achieved using a Zorbax Eclipse plus C8 Rapid resolution (4.6 i.d. Å∼ 150 mm, 3.5 μ) column with a Zorbax Eclipse plus C8 Rapid resolution (4.6 i.d. Å∼ 12.5 mm, 5 μ) guard column (Agilent, Santa Clara, CA, United States). The injection volume was 5 μL and flow rate of 0.8 mL/min. Gradient elution was performed using a mobile phase of solvent A (water containing 0.05% v/v acetic acid) and solvent B (acetonitrile with 0.05% v/v acetic acid).
(§3) Briefly, two in-person study visits occurred a minimum of two weeks and a maximum of four weeks apart in which participants orally consumed 2 or 4 g of CAP (in a randomized order) on an empty stomach. Total study duration was eight weeks including follow-up adverse event monitoring. All study procedures were identical for each visit except for the CAP dose administered. Randomization (to prevent tolerance effects) was performed using an arm equivalence design by the OHSU Research Pharmacy. All study personnel were blind to randomization allocation until all data analysis had been finalized. […] Participants fasted for 10 h, excluding water, prior to each study visit and for 2 h after consuming the study intervention to standardize gastrointestinal transit time and minimize food effects. During study visits, participants were provided low-phytochemical snacks and meals by the OCTRI CTRC’s Bionutrition Unit devoid of the foods outlined in Section 2.5. At each study visit, a peripheral intravenous catheter was placed in the arm to allow for repeat blood sampling. Prior to CAP intake, 20 mL of baseline blood and 50 mL of baseline urine were collected. […] Plasma aliquots (2 mL) were frozen and stored at -80°C until analysis. […] A 50 mL aliquot was retained and frozen at −80°C for renal excretion analysis.
(§4) Sample preparation and analysis: Plasma and urine sample preparation and analyte quantification by LC-MS/MS were performed in duplicate for each time point and visit (Sections 2.2–2.4). Due to the possibility of residual interference from the participant’s diet and unique, individual matrix effects, calibration curves were generated for each participant using their baseline plasma collected at the corresponding visit.

For series [3] the following is noted: cited from earlier work.
The nature of series [4]: Analyte storage stability in human urine. The settings on record: condition 2 freeze-thaw, high concentration.
Protocol: (§5) Analytes were mixed with 50 µL of charcoal treated plasma (n = 5) or urine (n = 5) and placed in each of the following storage conditions: 1) long-term storage (two weeks at −80°C); 2) three freeze-thaw cycles during a two-week period stored at −80°C; 3) 4°C for 24 h; and 4) fresh preparation for same day analysis. All samples were processed together for analysis. Calibration curves generated from storage condition 4 samples were used to determine the concentration of analyte present in each storage condition. The percent difference from samples in condition 4 was used to determine stability.
Series [5] in a line: Analyte storage stability in human plasma. The settings on record: condition 2 three freeze-thaw cycles, low concentration.
Protocol: as §5
For series [6] the following is noted: older adults on cholinesterase inhibitors, ref Wright et al., 2022, cited from earlier work.
For series [7] the following is noted: in vivo, po. How it is done:
as §1, §2, §3, §4

The conditions of series [8]: human, 2 weeks.
Protocol: as §5

Several values for one entry are separate records, joined by “and”; a condition that tells them apart may be missing. Equal entries are not always repeated. Where two headings read alike, the source gives them in different places.

The Cmax is the maximum level reached in the sampled fluid or tissue. A word on the half-life: it is the time in which the quantity being followed falls by half. High values mean slow loss, low ones fast loss. Consider `C[C@H]1[C@H](C)CC[C@]2(C(=O)O)CC[C@]3(C)C(=CC[C@@H]4[C@@]5(C)C[C@@H](O)[C@H](O)[C@@](C)(CO)[C@@H]5[C@H](O)C[C@]43C)[C@H]12` [MA, madecassic acid], for which the Cmax in series [1] (ECa 233 250 mg, ref Songvut et al., 2019) was 40 ng/mL; in series [1] (ECa 233 500 mg, ref Songvut et al., 2019), 52 ng/mL; in series [1] (read-out: Cmax (molar), ECa 233 250 mg, ref Songvut et al., 2019), 80 nM; in series [1] (read-out: Cmax (molar), ECa 233 500 mg, ref Songvut et al., 2019), 100 nM; in series [2], 107 to 197 ng/mL; in series [2] (2 g) it was 210 nM and 107 ng/mL. Also, the Cmax in series [2] (4 g) was 390 nM and 197 ng/mL; in series [6] (2 g CAP), 38 ng/mL; in series [6] (4 g CAP), 63 ng/mL. In addition, the Tmax in series [1] (encapsulated ECa 233, healthy adults, ref Songvut et al., 2019) is 1.5 h; in series [2], 2.2 to 2.8 h; in series [2] (2 g), 2.4 h; in series [2] (4 g), 2.7 h; in series [3] (capsular form, ref Grimaldi et al., 1990, Leng et al., 2013, Wright et al., 2022), 4 to 4.5 h. Further, the values for the half-life in series [2] (2 g) and in series [2] (4 g) were 9.2 h and 6.7 h, respectively. The “Stability, percent of nominal concentration” value in series [4] is listed as 80%; in series [5], 100%.
Consider `C[C@H]1[C@H](C)CC[C@]2(C(=O)O)CC[C@]3(C)C(=CC[C@@H]4[C@@]5(C)C[C@@H](O)[C@H](O)[C@@](C)(CO)[C@@H]5CC[C@]43C)[C@H]12` [AA, asiatic acid], for which the “Total urinary excretion (12 hr)” value in series [7] was “Not detected”. The Tmax in series [1] (human, in vivo) was 1.5 h; in series [2], 2.8 (0.2) hr; in series [2] (Tmax) it was 2.2 h; in series [2] (Tmax, range over both doses), 2.2 to 2.8 h; in series [3] (in vivo), 4 to 4.5 h. For the same compound, the “Stability, percent of nominal concentration” value in series [8] came out at 111%. Further, in series [2], the T1/2 is listed as 4.9 (1.3) hr. Besides, the Cmax in series [2] (Cmax, range over both doses) is 174 to 372 ng/mL; in series [6] (2 g CAP) it was 123 ng/mL; in series [6] (4 g CAP) it was 259 ng/mL. The compound also had a half-life in series [2] (T1/2) of 4.1 h.
